Measured values: patent US20250215030A1, “STAT MODULATORS AND USES THEREOF” (Recludix Pharma, Inc., priority 2022, published 2025)

How the values were obtained:
[1] = target: T1, Recombinant STAT3 protein (STAT3(G127-I722)) (Homo sapiens, UniProt P40763); assay: STAT3 Fluorescence Polarization (FP) Assay; format: binding; details: STAT3(G127-I722) 25 nM, probe 5-FAM-GpYLPQTV-NH2 2 nM, 45-minute incubation
T1 construct: STAT3(G127-I722)
Procedure: STAT3 Fluorescence Polarization (FP) Assay
An FP assay was developed to determine IC50 values for test substances. Recombinant STAT3 protein (STAT3(G127-I722)) at 25 nM was combined with a fluorescently labeled, phosphotyrosine peptide probe (5-FAM-GpYLPQTV-NH2) at 2 nM in FP buffer (10 mM HEPES pH 7.4, 50 mM NaCl, 1 mM EDTA, 0.05% Tween 20, 2 mM DTT). 50 μL of STAT3-probe mixture was added to serial diluted compounds in black, 96-well plates (Greiner BioOne 655076) to a final concentration of 1% DMSO. Reaction components were mixed, and FP was measured after 45-minute incubation at room temperature using a Tecan Spark multimode plate reader. FP signal (mP) was plotted against the log concentration of the test substances and IC50 values were calculated by nonlinear regression analysis using GraphPad Prism software. For STAT3 FP assay, A=≤100 nM; B=>100-1000 nM; C=>1-10 μM; and D=>10 μM.

[2] = target: T2, Recombinant STAT6 protein (STAT6(W123-T658)) (Homo sapiens, UniProt P42226); assay: STAT6 Fluorescence Polarization (FP) Assay; format: binding; details: STAT6(W123-T658) 250 nM, probe 5-FAM-ApYKPFQDLI-NH2 2 nM, 45-minute incubation
T2 construct: STAT6(W123-T658)
T2 sequence (P42226 123-658): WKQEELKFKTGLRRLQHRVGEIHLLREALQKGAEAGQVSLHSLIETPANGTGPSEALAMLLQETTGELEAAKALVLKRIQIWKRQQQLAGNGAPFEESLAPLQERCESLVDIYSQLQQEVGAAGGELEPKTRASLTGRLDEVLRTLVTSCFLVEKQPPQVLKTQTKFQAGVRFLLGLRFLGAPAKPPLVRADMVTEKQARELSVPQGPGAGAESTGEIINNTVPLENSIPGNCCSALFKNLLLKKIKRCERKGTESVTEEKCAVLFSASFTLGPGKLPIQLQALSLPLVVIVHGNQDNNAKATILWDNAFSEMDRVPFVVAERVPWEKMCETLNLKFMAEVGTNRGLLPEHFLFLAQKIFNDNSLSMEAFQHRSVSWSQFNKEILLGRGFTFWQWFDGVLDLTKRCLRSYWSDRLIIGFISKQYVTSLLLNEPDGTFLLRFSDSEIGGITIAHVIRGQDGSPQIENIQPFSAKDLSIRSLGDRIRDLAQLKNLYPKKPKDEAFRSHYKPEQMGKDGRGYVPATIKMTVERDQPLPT
Procedure: STAT6 Fluorescence Polarization (FP) Assay
An FP assay was developed to determine IC50 values for test substances. Recombinant STAT6 protein (STAT6(W123-T658)) at 250 nM was combined with a fluorescently labeled, phosphotyrosine peptide probe (5-FAM-ApYKPFQDLI-NH2) at 2 nM in FP buffer (10 mM HEPES pH 7.4, 50 mM NaCl, 1 mM EDTA, 0.05% Tween 20, 2 mM DTT). 50 μL of STAT6-probe mixture was added to serial diluted compounds in black, 96-well plates (Greiner BioOne 655076) to a final concentration of 1% DMSO. Reaction components were mixed, and FP was measured after 45-minute incubation at room temperature using a Tecan Spark multimode plate reader. FP signal (mP) was plotted against the log concentration of the test substances and IC50 values were calculated by nonlinear regression analysis using GraphPad Prism software. For STAT6 FP assay, A=≤300 nM; B=>300-3000 nM; C=>3-30 μM; and D=>30 μM.

T1 sequence (P40763 127-722, species assumed): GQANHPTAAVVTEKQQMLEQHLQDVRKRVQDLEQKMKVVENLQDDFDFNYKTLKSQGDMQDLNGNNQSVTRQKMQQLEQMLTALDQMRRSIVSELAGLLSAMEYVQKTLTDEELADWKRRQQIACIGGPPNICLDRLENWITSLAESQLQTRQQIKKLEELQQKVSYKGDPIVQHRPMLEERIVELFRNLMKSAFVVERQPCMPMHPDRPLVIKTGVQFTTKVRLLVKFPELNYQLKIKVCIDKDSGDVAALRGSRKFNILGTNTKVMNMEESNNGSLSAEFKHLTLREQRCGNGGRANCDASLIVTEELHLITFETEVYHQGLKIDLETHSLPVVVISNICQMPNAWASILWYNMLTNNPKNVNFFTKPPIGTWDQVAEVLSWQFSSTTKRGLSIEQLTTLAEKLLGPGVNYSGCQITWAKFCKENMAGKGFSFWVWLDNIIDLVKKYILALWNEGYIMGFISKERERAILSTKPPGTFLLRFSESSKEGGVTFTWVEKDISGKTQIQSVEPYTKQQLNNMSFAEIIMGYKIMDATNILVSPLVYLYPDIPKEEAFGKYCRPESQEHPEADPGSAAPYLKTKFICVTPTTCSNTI

IC50 [1] | IC50 [2] | SMILES
< 100 nM | 3 to 30 µM | O=C(N[C@H]1C[C@@H]2C[C@@H]2C[C@H]2CC[C@@H](C(=O)N3CC(c4cnccc4N4CCOCC4)C3)N2C1=O)c1cc2cc([C@H](F)P(=O)(O)O)ccc2s1 (single isomer, unassigned) [Example 406]
< 100 nM | 3 to 30 µM | CN(C)c1ccncc1C1CN(C(=O)[C@@H]2CC[C@@H]3C[C@H]4C[C@H]4C[C@H](NC(=O)c4cc5cc([C@H](F)P(=O)(O)O)ccc5s4)C(=O)N32)C1 (single isomer, unassigned) [Example 407]
< 100 nM | 3 to 30 µM | CN(C)c1ccncc1C1CN(C(=O)[C@@H]2CC[C@@H]3C[C@H]4C[C@H]4C[C@H](NC(=O)c4cc5cc([C@@H](F)P(=O)(O)O)ccc5s4)C(=O)N32)C1 (single isomer, unassigned) [Example 408]
1000 to 10000 nM | 3 to 30 µM | COC[C@@H]1CCN1c1ccncc1C1CN(C(=O)[C@@H]2CC[C@@H]3C[C@H]4C[C@H]4C[C@H](NC(=O)c4cc5cc([C@@H](F)P(=O)(O)O)ccc5s4)C(=O)N32)C1 (single isomer, unassigned) [Example 410]
100 to 1000 nM | 0.3 to 3 µM | COC[C@@H]1CCN1c1ccncc1C1CN(C(=O)[C@@H]2CC[C@@H]3C[C@H]4C[C@H]4C[C@H](NC(=O)c4cc5cc([C@H](F)P(=O)(O)O)ccc5s4)C(=O)N32)C1 (single isomer, unassigned) [Example 411]
1000 to 10000 nM | ≤ 0.3 µM | N#C[C@@H]1[C@@H](c2cccnc2)CN(C(=O)[C@@H]2CC[C@@H]3C[C@H]4C[C@H]4C[C@H](NC(=O)c4cc5cc([C@H](F)P(=O)(O)O)ccc5s4)C(=O)N32)C12CC2 (single isomer, unassigned) [Example 429]
< 100 nM | 0.3 to 3 µM | CN(C)c1ccncc1[C@@H]1CN(C(=O)[C@@H]2CC[C@@H]3C[C@H]4C[C@H]4C[C@H](NC(=O)c4cc5cc([C@H](F)P(=O)(O)O)ccc5s4)C(=O)N32)C2(CC2)C1 (single isomer, unassigned) [Example 433]
< 100 nM | ≤ 0.3 µM | CN(C)c1ccncc1[C@H]1CN(C(=O)[C@@H]2CC[C@@H]3C[C@H]4C[C@H]4C[C@H](NC(=O)c4cc5cc([C@H](F)P(=O)(O)O)ccc5s4)C(=O)N32)C2(CC2)C1 (single isomer, unassigned) [Example 435]
< 100 nM | 3 to 30 µM | CC12CC1C[C@H](NC(=O)c1cc3cc(C(F)(F)P(=O)(O)O)ccc3s1)C(=O)N1[C@H](CC[C@H]1C(=O)N1CC(c3cccnc3)C1)C2 (stereo in doubt) [Example 231, (difluoro(2-(((3S,6S,7aR,8aS,9aR)-8a-methyl-5-oxo-3-(3-(pyridin-3-yl)azetidine-1-carbonyl)decahydro-1H-cyclopropa[d]pyrrolo[1,2-a]azocin-6-yl)carbamoyl)benzo[b]thiophen-5-yl)methyl)phosphonic acid]
< 100 nM | 3 to 30 µM | COC1(c2nccn2C)CN(C(=O)[C@@H]2CC[C@@H]3CC4(C)CC4C[C@H](NC(=O)c4cc5cc(C(F)(F)P(=O)(O)O)ccc5s4)C(=O)N32)C1 (stereo in doubt) [Example 239, (difluoro(2-(((3S,6S,7aR,8aS,9aR)-3-(3-methoxy-3-(1-methyl-1H-imidazol-2-yl)azetidine-1-carbonyl)-8a-methyl-5-oxodecahydro-1H-cyclopropa[d]pyrrolo[1,2-a]azocin-6-yl)carbamoyl)benzo[b]thiophen-5-yl)methyl)phosphonic acid]
100 to 1000 nM | 3 to 30 µM | CC(=O)N1CCC2C1CN2C(=O)[C@@H]1CC[C@@H]2C[C@H]3C[C@H]3C[C@H](NC(=O)c3cc4cc(C(F)P(=O)(O)O)ccc4s3)C(=O)N21 (stereo in doubt) [Example 289, ((2-(((3S,6S,7aS,8aR,9aR)-3-((1S,5S)-2-acetyl-2,6-diazabicyclo[3.2.0]heptane-6-carbonyl)-5-oxodecahydro-1H-cyclopropa[d]pyrrolo[1,2-a]azocin-6-yl)carbamoyl)benzo[b]thiophen-5-yl)fluoromethyl)phosphonic acid]
< 100 nM | 3 to 30 µM | C[C@H]1CN(C(=O)C2CN(C(=O)[C@@H]3CC[C@@H]4C[C@H]5C[C@H]5C[C@H](NC(=O)c5cc6cc(C(F)(F)P(=O)(O)O)ccc6s5)C(=O)N43)C2)CCO1 [Compound 12, (difluoro(2-(((3S,6S,7aS,8aR,9aR)-3-(3-((S)-2-methylmorpholine-4-carbonyl)azetidine-1-carbonyl)-5-oxodecahydro-1H-cyclopropa[d]pyrrolo[1,2-a]azocin-6-yl)carbamoyl)benzo[b]thiophen-5-yl)methyl)phosphonic acid]
< 100 nM | 3 to 30 µM | C[C@@H]1COCCN1C(=O)C1CN(C(=O)[C@@H]2CC[C@@H]3C[C@H]4C[C@H]4C[C@H](NC(=O)c4cc5cc(C(F)(F)P(=O)(O)O)ccc5s4)C(=O)N32)C1 [Compound 13, (difluoro(2-(((3S,6S,7aS,8aR,9aR)-3-(3-((R)-3-methylmorpholine-4-carbonyl)azetidine-1-carbonyl)5-oxodecahydro-1H-cyclopropa[d]pyrrolo[1,2-a]azocin-6-yl)carbamoyl)benzo[b]thiophen-5-yl)methyl)phosphonic acid]
< 100 nM | 3 to 30 µM | C[C@H]1COCCN1C(=O)C1CN(C(=O)[C@@H]2CC[C@@H]3C[C@H]4C[C@H]4C[C@H](NC(=O)c4cc5cc(C(F)(F)P(=O)(O)O)ccc5s4)C(=O)N32)C1 [Compound 14, (difluoro(2-(((3S,6S,7aS,8aR,9aR)-3-(3-((S)-3-methylmorpholine-4-carbonyl)azetidine-1-carbonyl)-5-oxodecahydro-1H-cyclopropa[d]pyrrolo[1,2-a]azocin-6-yl)carbamoyl)benzo[b]thiophen-5-yl)methyl)phosphonic acid]
< 100 nM | 3 to 30 µM | O=C(N[C@H]1C[C@@H]2C[C@@H]2C[C@H]2CC[C@@H](C(=O)N3CC(C(=O)N4CCOCC4)C3)N2C1=O)c1cc2cc(C(F)(F)P(=O)(O)O)ccc2s1 [Compound 15, (difluoro(2-(((3S,6S,7aS,8aR,9aR)-3-(3-(morpholine-4-carbonyl)azetidine-1-carbonyl)-5-oxodecahydro-1H-cyclopropa[d]pyrrolo[1,2-a]azocin-6-yl)carbamoyl)benzo[b]thiophen-5-yl)methyl)phosphonic acid]
100 to 1000 nM | 3 to 30 µM | O=C(N[C@H]1C[C@@H]2C[C@@H]2C[C@H]2CC[C@@H](C(=O)N3CC[C@@H](N4CCOCC4)C3)N2C1=O)c1cc2cc(C(F)(F)P(=O)(O)O)ccc2s1 [Compound 16, (difluoro(2-(((3S,6S,7aS,8aR,9aR)-3-((R)-3-morpholinopyrrolidine-1-carbonyl)-5-oxodecahydro-1H-cyclopropa[d]pyrrolo[1,2-a]azocin-6-yl)carbamoyl)benzo[b]thiophen-5-yl)methyl)phosphonic acid]
100 to 1000 nM | 3 to 30 µM | O=C(N[C@H]1C[C@@H]2C[C@@H]2C[C@H]2CC[C@@H](C(=O)N3CC[C@H](N4CCOCC4)C3)N2C1=O)c1cc2cc(C(F)(F)P(=O)(O)O)ccc2s1 [Compound 17, (difluoro(2-(((3S,6S,7aS,8aR,9aR)-3-((S)-3-morpholinopyrrolidine-1-carbonyl)-5-oxodecahydro-1H-cyclopropa[d]pyrrolo[1,2-a]azocin-6-yl)carbamoyl)benzo[b]thiophen-5-yl)methyl)phosphonic acid]
